Assay results from patent publication US12534450B2, “Methods and compositions for targeting PD-L1” (Aligos Therapeutics, Inc., priority 2021, dated 2026).
pEC50, pIC50: −log10 of the molar value.

Legend:
[1] = target: PD-1/PD-L1 PPI (Homo sapiens, UniProt Q9NZQ7); test: PDL1/PD1 Binding Assay; conditions: PDL1-6×His 0.3 nM, PD1-Fc-Avi-Biotin 2.5 nM, Acceptor/Donor beads, Envision reader
Procedure, shortened: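 AlphaScreen competition: compound (1% DMSO) preincubated 30 min RT with PDL1-6×His (0.3 nM), then PD1-Fc-Avi-Biotin (2.5 nM) 30 min; anti-His acceptor and streptavidin donor beads (20 ug/mL each) added, 1 h each, dark up to overnight. Buffer 25 mM Hepes pH 7.4, 150 mM NaCl. IC50 by four-parameter fit.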

[2] = system: PD-1/PD-L1 interaction; test: PD-1/PD-L1 NFAT Reporter Assay (co-culture of Jurkat T cells overexpressing PD-1 and PD-L1 expressing CHO cells); type: cell-based; conditions: co-culture 6 hrs at 37° C., NFAT-mediated luciferase activity
Procedure, shortened: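 Compounds added to CHO cells expressing surface anti-CD3 and PD-L1, then Jurkat cells with PD-1 and NFAT-driven luciferase seeded on top; co-culture 6 hrs at 37° C. Luminescence read after ONE-Glo addition, EC50 from dose-response fit.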

Chain of PD-1/PD-L1 PPI (Q9NZQ7 19-238 limits assumed): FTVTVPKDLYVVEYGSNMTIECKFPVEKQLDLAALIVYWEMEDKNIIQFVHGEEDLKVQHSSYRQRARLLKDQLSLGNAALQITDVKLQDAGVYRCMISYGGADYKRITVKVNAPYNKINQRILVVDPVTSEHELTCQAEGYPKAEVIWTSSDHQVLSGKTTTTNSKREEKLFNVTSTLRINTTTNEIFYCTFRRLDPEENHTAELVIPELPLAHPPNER

Row | SMILES | pIC50 [1] | pEC50 ([2]; Homo sapiens, Jurkat, 6 h) | pEC50 [2]
1 | COc1nc(-c2cccc(-c3cccc(NC(=O)c4cn(C)c(=O)n(C)c4=O)c3C)c2Cl)cc2c1C(NC[C@@H]1CCC(=O)N1)C(O)C2 (single isomer, unassigned) [Compound A-126] | ≥ 8.00 |  | 7.00 to 8.00
2 | COc1nc(-c2cccc(-c3cc(F)cc(NC(=O)c4nn(C)c(=O)n(C)c4=O)c3C)c2Cl)cc2c1[C@@H](NC[C@@H]1CCC(=O)N1)CC2 [Compound A-62] | ≥ 8.00 | ≥ 8.00 | 
3 | CCOC(=O)C1CN([C@@H]2CCc3cc(-c4cccc(-c5cccc(NC(=O)c6cn(C)c(=O)n(C)c6=O)c5Cl)c4Cl)nc(OC)c32)C1 (single isomer, unassigned) [Compound A-86] | 6.00 to 7.00 | < 5.30 | 
4 | COc1nc(-c2cc(F)cc(-c3cc(F)cc(NC(=O)c4cn(C)c(=O)n(C)c4=O)c3C)c2Cl)cc2c1[C@@H](NC[C@@H]1CCC(=O)N1)CC2 [Compound A-64] | ≥ 8.00 | ≥ 8.00 | 
5 | COc1nc(-c2cccc(-c3cccc(NC(=O)c4cn(C)c(=O)n(C)c4=O)c3F)c2Cl)cc2c1[C@@H](NC[C@@H]1CCC(=O)N1)CC2 [Compound A-3] | ≥ 8.00 | ≥ 8.00 | 
6 | COc1nc(-c2cccc(-c3cccc(NC(=O)c4cn(C)c(=O)n(C)c4=O)c3C)c2Cl)cc2c1C(NC[C@@H]1CCC(=O)N1)C(O)C2 (single isomer, unassigned) [Compound A-125] | ≥ 8.00 |  | < 5.30
7 | COc1nc(-c2cccc(-c3cccc(NC(=O)c4nn(C)c(=O)n(C)c4=O)c3Cl)c2Cl)cc2c1[C@@H](N[C@@H]1CCOC[C@H]1O)CC2 (single isomer, unassigned) [Compound A-93] | ≥ 8.00 | 6.00 to 7.00 | 

Second part, the compound after the results:

Row | pIC50 [1] | pEC50 ([2]; Homo sapiens, Jurkat, 6 h) | pEC50 [2] | SMILES
8 | ≥ 8.00 | ≥ 8.00 |  | COc1nc(-c2cccc(-c3cccc(NC(=O)c4cn(C)c(=O)n(C)c4=O)c3Cl)c2Cl)cc2c1[C@@H](NC[C@@H]1CCC(=O)N1)CC2 (single isomer, unassigned) [Compound A-1]
9 | ≥ 8.00 | 5.00 to 6.00 |  | COc1nc(-c2cccc(-c3cccc(NC(=O)c4cn(C)c(=O)n(C)c4=O)c3C)c2Cl)cc2c1[C@@H](NC[C@@H]1CNC(=O)C1)CC2 (single isomer, unassigned) [Compound A-137]
10 | ≥ 8.00 | 7.00 to 8.00 |  | COc1nc(-c2cccc(-c3cccc(NC(=O)c4cn(C)c(=O)n(C)c4=O)c3Cl)c2Cl)cc2c1C(N1CCN3C(=O)CC[C@@H]3C1)CC2 (stereo partly shown) [Compound A-118]
11 | ≥ 8.00 | 7.00 to 8.00 |  | COc1nc(-c2cccc(-c3cccc(NC(=O)c4cn(C)c(=O)n(C)c4=O)c3Cl)c2Cl)cc2c1C(N[C@H]1CCOC[C@H]1O)CC2 (stereo partly drawn) [Compound D-7]
